This is an account of results in a melting point compilation (Tetko et al.; mined from patent text by program, amines drawn as free bases though some values may be those of a salt).

Structures are written as SMILES.

For orientation: melting point means the temperature of the solid-liquid transition. `CNC(=O)[C@H]1O[C@@H]1c1ccc(C)cc1` showed a melting point of 152 to 153 °C.

As to `O=c1c2ccc(Cl)cc2[nH]c2c(O)nn(CC#Cc3ccc(Cl)cc3)c(=O)c12`, the melting point lay in the range of 251 to 252 °C. `O=c1oc2c(c(O)c1C1(c3ccccc3)CCC1)CCCCCC2` yielded a melting point of 240 to 241 °C. `O=S(=O)(Nc1ccc(C(F)(F)F)nc1I)c1ccccc1` came in with a melting point of 131 °C. Then `CCCc1nc2c(N)nc3ccccc3c2n1CC1(O)CCOC1` (stereo unspecified), with 201 to 203 °C; and `CCCn1c(=O)c2c(NC)n[nH]c2n(Cc2ccc(F)cc2)c1=O`, with 262 to 265 °C. Compound `COC(=O)C(CCCCN1C(=O)c2ccccc2C1=O)C(=O)OC` showed a melting point of 55 to 58 °C. To `Cc1nc2ccc(CN(CCO)c3ccc(C(=O)NCc4cccc(C#N)c4)cc3)cc2c(=O)[nH]1` belongs 110 to 112 °C. Then `CC1(C)Oc2ccc([N+](=O)[O-])cc2C(n2ccccc2=O)C1(O)CNC(=O)C(F)(F)F` (stereo unspecified), with 158 °C.

As to `CC(C)(C(=O)c1ccc(S)cc1)N1CCOCC1`, the melting point was 68 to 69 °C. Then `CN1CCN(c2cccc(Nc3cc(NC(=O)Nc4c(Cl)cccc4Cl)ncn3)c2)CC1`, with 209 to 212 °C; and `CNc1cc(F)ccc1C(=O)O`, with 180 to 181 °C; and `CCC(=O)OC1(C(=O)CCl)CCC2C3CCC4CC(=O)CCC4(C)C3(F)C(=O)CC21C` (stereo unspecified), with 168 °C. With `CCC1(NC2=NS(=O)(=O)c3sc(Cl)cc3N2)CCC1`, the melting point lay within 244 to 246 °C. To `CSc1ncc(Oc2ccc(Cl)cc2)c(=O)[nH]1` belongs 232 to 233 °C; to `CCCCCCCCCCN(O)C(=O)NCC(=O)OCC`, 70 to 71 °C; to `CCOC(=O)c1cnccc1CSc1nc(C)c(CC(=O)O)s1`, 139 to 141 °C. Then `C(=Nc1cccc2ccccc12)=Nc1cccc2ccccc12`, with 91 °C; and `COc1ccc(-c2nnc(C(C)C)n2-c2ccc(OC)cc2)cc1`, with 162 °C. To `CC(C)Oc1nccc(-c2c(-c3ccc(F)cc3)ncn2C2CCNCC2)n1` belongs 121 to 122 °C; to `Cc1ccccc1NCN1C(=O)CSC1=O`, 109 to 111 °C; to `CCCNC(=O)C(C)=Cc1ccc2c(c1)c(Cc1ccc(C(=O)OC)cc1OC)cn2CC(=O)N(C)C`, 117 to 118 °C. The compound `CCCN1CCC(Cc2ccc3c(c2)c(Cc2ccc(C(=O)O)cc2OC)cn3CCC)C1=O` (stereo unspecified) yielded a melting point of 75 to 86 °C. Then `N#Cc1cccc(Oc2ncccc2C(=O)NCc2ccc(-c3cccc(C(=O)O)c3)cc2F)c1`, with 200 to 202 °C; and `CCOC(=O)COc1ccc(-c2cc(O)c(SCCc3ccccc3)c(=O)o2)cc1`, with 169 to 171 °C; and `CCOC(=O)/C=C/c1cn(Cc2ccc(OCc3ccccc3)cc2)nc1-c1ccc(F)cc1`, with 113 to 114 °C.

For the compound `Cc1c(S(=O)(=O)Nc2ccc(-c3ncco3)cc2S(C)(=O)=O)sc2ccc(F)cc12`, the melting point is 207 to 208 °C. To `Cn1cc([N+](=O)[O-])nc1C(Cl)Cl` belongs 153 °C. Then `C=CCn1c(C)nc2c1CCCC2=O`, with 78 °C; and `CCCC1=C(C(=O)OCC)C(c2cccc3nonc23)c2c[nH]nc2N1` (stereo unspecified), with 207 °C; and `CC(=O)NC(C(=O)NCc1cccnc1)c1ccco1` (stereo unspecified), with 172 to 174 °C.

Compound `COc1ccc2c(c1)C(=O)NCc1c(-c3nc(C4CC4)no3)ncn1-2` returned a melting point of 245 °C. Then `CCOC(=O)Cn1c2c(n(Cc3ccccc3)c(=O)c1=O)CCC1=C2C=C(N)CC1`, with 231 °C. Then `CCOC(=O)C(=O)/C=C/c1ccc(OCc2nc(-c3ccccc3)oc2C)cc1`, with 110 to 111 °C; and `O=C(O)c1ccccc1NCc1ccncc1`, with 208 °C; and `CSC(=S)NN=Cc1nc(C)[nH]c1C`, with 279 to 281 °C.

Compound `CC(C)(C)n1cc(-c2ccc(I)cc2)c2c(N)ncnc21` yielded a melting point of 188 to 189 °C.

In turn, `CC(C)(C)OC(=O)N1CCN(C(=O)OCc2ccccc2)CC1` displayed a melting point of 90.5 to 91.5 °C.

Consider `CCCCCCCCc1ccc(-c2ncc(O)cn2)cc1`, for which the melting point fell in the range of 147 to 149 °C. To `Nc1ccc(Sc2cccc3c2C(=O)c2cccc(Sc4ccc(N)cc4)c2C3=O)cc1` belongs 364 to 365 °C. Then `OCCc1c(-c2ccccc2)nc(Cl)n2ncnc12`, with 104 to 105 °C; and `Cn1cc(C(=O)NCc2ccc(Cl)cc2)c(=O)c2cc(CC3CCOCC3)cc(C#CCO)c21`, with 166 to 168 °C. To `O=C(C[C@H]1CC[C@@H](C(=O)O)N1Cc1ccccc1)N[C@@H](Cc1ccc(OCc2c(Cl)cccc2Cl)cc1)C(=O)O` belongs 198 to 202 °C; to `NC(=O)c1ccc(NC2CCCN(Cc3ccccc3)CC2)c(Cl)c1` (stereo unspecified), 174 to 175 °C; to `COc1cn(-c2ccc(-n3nccc3O)cc2F)nc(-c2ccnn2-c2ccccc2)c1=O`, 221 to 229 °C. `C[C@@H](n1ccn(-c2ccc(-n3nccn3)cc2)c1=O)[C@](O)(Cn1cncn1)c1ccc(F)cc1F` displayed a melting point of 182 to 185 °C. To `Cc1cc(-c2ccc(NC(=O)CCN3CCC(c4ccccc4)CC3)cc2)n[nH]c1=O` belongs 239 to 240 °C. To `[O-][N+](=Cc1ccccn1)c1cccc(CO)c1` belongs 117 to 119 °C; to `COc1ccc2c(c1)OCC(Cc1cccnc1)C2=O` (stereo unspecified), 95 to 99 °C.

Regarding `CS(=O)(=O)N1CCC2OC2CC1` (stereo unspecified), the melting point lay in the range of 133 to 134 °C.

For `N#Cc1cc(-c2ccc(F)cc2)ccn1`, the melting point was in the range of 194 to 195 °C. To `C=CCn1c(Nc2cc(C(F)(F)F)ccc2C(F)(F)F)nc(C(F)(F)F)cc1=O` belongs 116 to 118 °C. Then `Cc1ccccc1C(=O)Nc1ccc(C(=O)N2CCCC(NC(=O)Nc3ccccc3)c3ccccc32)cc1` (stereo unspecified), with 269 to 271 °C.

In the case of `CCOC(=O)N[C@@H]1CC=C[C@@H]2CNC[C@H]21` (racemic), the melting point lay in the range of 120 to 122 °C. The compound `CNC(=O)CC1CCN(Cc2cnc3cc(NC(=O)c4ccc(-c5ccc(F)cc5)cc4)c(C)cc3c2)CC1` displayed a melting point of 243 °C. Then `CN1C(=O)CN(NC(=O)CNC(=O)OCc2ccccc2)C(c2ccccc2)c2cc(Cl)ccc21` (stereo unspecified), with 184 to 190 °C. `CCOC(=O)c1cc2c(cc1OCC)C(=O)C=CC2=O` displayed a melting point of 60 to 62 °C. Take `CC(C)c1ccc(C(=O)NCCCCN2CCN(C(c3ccccc3)c3ccccc3)CC2)c(O)n1`: the melting point is 184 to 186 °C. Compound `COc1ccc2ncc(S(=O)(=O)N(C)C)c(O)c2c1` yielded a melting point above 300 °C.

For `Nc1nc2cc(-c3cccc(C(=O)N4CCCC4)c3)ccc2c2c1nc(CO)n2CC1CCOCC1`, the melting point was 281 to 284 °C. To `COc1cc2[nH]c(C(=O)O)cc(=O)c2c2cccnc12` belongs 286 to 288 °C. Then `Cc1ccc(C(=S)NN)cc1`, with 140 to 142 °C; and `CCOC(=O)c1cnc2ccc(OCC)nc2c1O`, with 275 to 278 °C; and `C[Si](C)(C)CCCOc1cc(Cl)c([N+](=O)[O-])cc1Cl`, with 45 to 48 °C.

The compound `c1ccc(NCCCCCCCNc2ccccc2)cc1` came in with a melting point of 52 to 54 °C. Then `O=C(O)c1cc(Br)cnc1O`, with 245 °C; and `COC(=O)c1cc(O)cc(Cl)c1O`, with 126 °C. To `CC(C)[C@H](NC(=O)OC(C)(C)C)C(=O)N[C@H](CCC(=O)OCc1ccccc1)C(N)=O` belongs 149 to 151 °C. Then `O=C(NCC1(O)CCCCCC1)c1c(Cl)ccc2nc(N3CC[C@H](NCCO)C3)ccc12`, with 138 to 140 °C; and `CC(=O)Oc1cccc2[nH]ccc12`, with 97 to 98 °C.

Compound `Cc1cc2c(cc1N(C)C=O)N1CCN=C1S2` yielded a melting point of 164 °C. Compound `Cc1cc(Cl)cc(C#N)c1` had a melting point of 132 to 133 °C.

`CS(=O)(=O)c1ccc(-c2cc(CO)nn2-c2ccc(Cl)cc2)cc1` showed a melting point of 96 to 100 °C. Compound `OC1CSC(Oc2ccccn2)C(O)C1O` (stereo unspecified) displayed a melting point of 196 °C.

Take `CCN1CCC(NC(=O)Cn2c(-c3ccc(Br)cc3)nc3cccnc32)C1` (stereo unspecified): the melting point fell in the range of 202 to 204 °C. Then `CC(C)(C)c1cccc(CC(O)CO)c1OCc1ccccc1` (stereo unspecified), with 79 to 81 °C. Take `COc1nc2cc(Cl)c(Cl)c(NS(C)(=O)=O)c2nc1OC`: the melting point was in the range of 225 to 227 °C. On to `CCOC(=O)C(C)=Cc1cn(-c2cccnc2)c2ccccc12`, for which the melting point lay in the range of 97 to 99 °C. To `NC(=O)c1c2ccsc2nc2c1c1ccccc1n2Cc1ccccc1` belongs 242 to 245 °C. To `CC(C)SC(=O)N1CCN(c2ccc3ncc(Br)n3n2)CC1` belongs 186 to 187 °C; to `Cc1cc2c(cc1C)C(=O)C(CN1CCC3(CC1)C(=O)NCN3c1ccccc1)CC2` (stereo unspecified), 182 to 183 °C. To `NCCCc1ccc(OCCC2Oc3ccccc3N(Cc3ccc(Cl)cc3)C2=O)cc1` (stereo unspecified) belongs 95 to 97 °C; to `CC#CCOc1ccc(SC(C(=O)NO)c2ccc(Br)cc2)cc1` (stereo unspecified), 153 °C.

Consider `O=c1[nH]c(=O)n(C2CC(F)C(COC(c3ccccc3)(c3ccccc3)c3ccccc3)O2)cc1C#CI` (stereo unspecified), for which the melting point was found to be 73 °C. Regarding `CCOC(=O)C1OC1C(=O)Nc1ccccc1` (stereo unspecified), the melting point fell in the range of 83 to 84 °C. For the compound `CN(C)c1cc(Oc2cccc(C(F)(F)F)c2)nc(C(=O)Nc2ccccc2)c1`, the melting point was 135 to 138 °C. Then `O=c1c(-c2cccc(C(F)(F)F)c2F)nn(Cc2ccc(F)cc2F)c2cc(Cl)ccc12`, with 118 to 120 °C; and `CC(C)C(Br)=C(c1ccccc1)c1ccccc1`, with 112 to 114 °C; and `CC(C)(C(=O)O)C1CCN(Cc2ccccc2)CC1`, with 195 °C. Turning to `O=C(O)CCN1C(=O)c2cccc(NC(=O)c3ccc(Cl)s3)c2C1=O`, the melting point came to 194 °C.

Consider `CC1(C)Oc2ccc(S(=O)(=O)Nc3ccccc3)cc2C(N2CCCCC2=O)C1O` (stereo unspecified), for which the melting point was in the range of 272 to 276 °C.
